Measurements published in patent US20250320224A1 (DOMAIN THERAPEUTICS, priority 2022, published 2025).
Where a name gives a salt, the structure may show the parent alone.

target: T1, human PAR-2 (hPAR-2) receptor (Homo sapiens, UniProt P55085); test: In vitro human PAR-2 functional antagonist activity using calcium assays; assay type: cell-based; conditions: hPAR-2 endogenously expressed in HEK-293 cells; stimulated by 2-Furoyl-LIGRLO-NH2 peptide; Fluo4AM intracellular calcium, FLIPR Tetra
T1 construct: expressed in HEK-293 cells in an endogenous manner; endogenous in cells; host or cells: HEK-293
T1 sequence (P55085 26-397): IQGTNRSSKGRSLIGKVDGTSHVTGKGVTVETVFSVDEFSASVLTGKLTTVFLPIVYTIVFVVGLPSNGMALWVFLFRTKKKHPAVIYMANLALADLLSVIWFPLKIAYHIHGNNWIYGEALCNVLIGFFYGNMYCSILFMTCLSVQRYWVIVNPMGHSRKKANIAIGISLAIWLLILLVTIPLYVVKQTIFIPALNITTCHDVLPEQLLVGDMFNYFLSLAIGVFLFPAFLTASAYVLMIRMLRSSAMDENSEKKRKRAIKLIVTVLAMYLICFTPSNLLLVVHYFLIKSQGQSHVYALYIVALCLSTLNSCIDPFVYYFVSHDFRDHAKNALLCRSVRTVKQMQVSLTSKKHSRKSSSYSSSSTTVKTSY
Outline: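 HEK-293 cells with endogenous hPAR-2 were loaded with Fluo4AM and read for intracellular Ca2+ on FLIPR. After 10 min with compound alone, cells were stimulated with 2-Furoyl-LIGRLO-NH2 at the concentration giving 80% of maximal response. Inhibition was then recorded over 5 min relative to buffer and agonist-only signals.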

| Structure (SMILES) | IC50 |
| --- | --- |
| CC1(C)CN(c2ccc(Cl)c(F)c2)c2ccc(C(=O)N3CCN(c4nc(C(N)=O)cs4)CC3(C)C)nc21 [Example 83, 2-(4-(1-(4-chloro-3-fluorophenyl)-3,3-dimethyl-2,3-dihydro-1H-pyrrolo[3,2-b]pyridine-5-carbonyl)-3,3-dimethylpiperazin-1-yl)thiazole-4-carboxamide] | < 500 nM |
| Cc1ccc(N2CC(C)(C)c3nc(C(=O)N4CCN(c5cc(C)c(C(=O)O)c(C)n5)CC4(C)C)ccc32)cc1F [Example 85, 6-(4-(1-(3-fluoro-4-methylphenyl)-3,3-dimethyl-2,3-dihydro-1H-pyrrolo[3,2-b]pyridine-5-carbonyl)-3,3-dimethylpiperazin-1-yl)-2,4-dimethylnicotinic acid] | < 500 nM |
| Cc1cc(N2CCN(C(=O)c3ccc4c(n3)OC(C)(C)CN(c3ccc(Cl)c(F)c3)C4)C(C)(C)C2)nc(C)c1C(=O)O [Example 87, 6-(4-(4-(4-chloro-3-fluorophenyl)-2,2-dimethyl-2,3,4,5-tetrahydropyrido[3,2-f][1,4]oxazepine-8-carbonyl)-3,3-dimethylpiperazin-1-yl)-2,4-dimethylnicotinic acid] | > 10000 nM |
| Cc1cc(N2CCN(C(=O)c3ccc4c(n3)C3(CN4c4ccc(Cl)c(F)c4)CC(F)(F)C3)C(C)(C)C2)nc(C)c1C(=O)O [Example 89, 6-(4-(1′-(4-chloro-3-fluorophenyl)-3,3-difluoro-1′,2′-dihydrospiro[cyclobutane-1,3′-pyrrolo[3,2-b]pyridine]-5′-carbonyl)-3,3-dimethylpiperazin-1-yl)-2,4-dimethylnicotinic acid] | < 500 nM |
| Cc1cc(N2CCN(C(=O)c3ccc4c(n3)C3(C=C(F)C3)CN4c3ccc(Cl)c(F)c3)C(C)(C)C2)nc(C)c1C(=O)O (stereo not shown) [Example 90, 6-(4-(1′-(4-chloro-3-fluorophenyl)-3-fluoro-1′,2′-dihydrospiro[cyclobutane-1,3′-pyrrolo[3,2-b]pyridin]-2-en-5′-carbonyl)-3,3-dimethylpiperazin-1-yl)-2,4-dimethylnicotinic acid] | < 500 nM |
| CO[C@@H]1CN(C(=O)c2ccc3c(n2)C(C)(C)CN3c2ccc(Cl)c(F)c2)CC[C@H]1CC(=O)O [Example 92, 2-((3S,4S)-1-(1-(4-chloro-3-fluorophenyl)-3,3-dimethyl-2,3-dihydro-1H-pyrrolo[3,2-b]pyridine-5-carbonyl)-3-methoxypiperidin-4-yl)acetic acid] | 500 to 10000 nM |
| CO[C@H]1CN(C(=O)c2ccc3c(n2)C(C)(C)CN3c2ccc(Cl)c(F)c2)CC[C@@H]1CC(=O)O [Example 94, 2-((3R,4R)-1-(1-(4-chloro-3-fluorophenyl)-3,3-dimethyl-2,3-dihydro-1H-pyrrolo[3,2-b]pyridine-5-carbonyl)-3-methoxypiperidin-4-yl)acetic acid] | 500 to 10000 nM |
| CO[C@@H]1CN(C(=O)c2ccc3c(n2)C(C)(C)CN3c2ccc(Cl)c(F)c2)CC[C@@H]1CC(=O)O [Example 98, 2-((3S,4R)-1-(1-(4-chloro-3-fluorophenyl)-3,3-dimethyl-2,3-dihydro-1H-pyrrolo[3,2-b]pyridine-5-carbonyl)-3-methoxypiperidin-4-yl)acetic acid] | 500 to 10000 nM |
| Cc1cc(N2CCN(C(=O)c3cnc4c(n3)C(C)(C)CN4c3ccc(Cl)c(F)c3)C(C)(C)C2)nc(C)c1C(=O)O [Example 100, 6-(4-(5-(4-chloro-3-fluorophenyl)-7,7-dimethyl-6,7-dihydro-5H-pyrrolo[2,3-b]pyrazine-2-carbonyl)-3,3-dimethylpiperazin-1-yl)-2,4-dimethylnicotinic acid] | < 500 nM |
| CN1CCN(C(=O)c2csc(N3CCN(C(=O)c4ccc5c(n4)C(C)(C)CN5c4ccc(Cl)c(F)c4)C(C)(C)C3)n2)CC1 [Example 101, (1-(4-chloro-3-fluorophenyl)-3,3-dimethyl-2,3-dihydro-1H-pyrrolo[3,2-b]pyridin-5-yl)(2,2-dimethyl-4-(4-(4-methylpiperazine-1-carbonyl)thiazol-2-yl)piperazin-1-yl)methanone hydrochloride] | < 500 nM |
| CCC1(CC)CN(c2ccc(Cl)c(F)c2)c2ccc(C(=O)N3CCN(c4cc(C)c(C(=O)O)c(C)n4)CC3(C)C)nc21 [Example 103, 6-(4-(1-(4-chloro-3-fluorophenyl)-3,3-diethyl-2,3-dihydro-1H-pyrrolo[3,2-b]pyridine-5-carbonyl)-3,3-dimethylpiperazin-1-yl)-2,4-dimethylnicotinic acid] | < 500 nM |
| CC1(C)CN(c2ccc(Cl)c(F)c2)c2ccc(C(=O)N3CCN(c4cc(C(=O)O)ccn4)CC3(C)C)nc21 [Example 105, 2-(4-(1-(4-chloro-3-fluorophenyl)-3,3-dimethyl-2,3-dihydro-1H-pyrrolo[3,2-b]pyridine-5-carbonyl)-3,3-dimethylpiperazin-1-yl)isonicotinic acid] | < 500 nM |
| CC1(C)CN(c2ccc(Cl)c(F)c2)c2ccc(C(=O)N3CCN(c4cnccc4C(=O)O)CC3(C)C)nc21 [Example 107, 3-(4-(1-(4-chloro-3-fluorophenyl)-3,3-dimethyl-2,3-dihydro-1H-pyrrolo[3,2-b]pyridine-5-carbonyl)-3,3-dimethylpiperazin-1-yl)isonicotinic acid] | 500 to 10000 nM |
| CC1(C)CN(c2ccc(Cl)c(F)c2)c2ccc(C(=O)N3CCCC(Nc4ccc(C(=O)O)cn4)C3)nc21 (stereo not shown) [Example 109, 6-((1-(1-(4-chloro-3-fluorophenyl)-3,3-dimethyl-2,3-dihydro-1H-pyrrolo[3,2-b]pyridine-5-carbonyl)piperidin-3-yl)amino)nicotinic acid] | > 10000 nM |
| CN(c1ccc(C(=O)O)cn1)C1CCCN(C(=O)c2ccc3c(n2)C(C)(C)CN3c2ccc(Cl)c(F)c2)C1 (stereo not shown) [Example 111, 6-((1-(1-(4-chloro-3-fluorophenyl)-3,3-dimethyl-2,3-dihydro-1H-pyrrolo[3,2-b]pyridine-5-carbonyl)piperidin-3-yl)(methyl)amino)nicotinic acid hydrochloride] | 500 to 10000 nM |
| Cc1cc(N2CCN(C(=O)c3ccc4c(n3)C3(CCCC3)CN4c3ccc(F)c(F)c3)C(C)(C)C2)nc(C)c1C(=O)O [Example 113, 6-(4-(1′-(3,4-difluorophenyl)-1′,2′-dihydrospiro[cyclopentane-1,3′-pyrrolo[3,2-b]pyridine]-5′-carbonyl)-3,3-dimethylpiperazin-1-yl)-2,4-dimethylnicotinic acid] | < 500 nM |
| CC1(C)CN(c2ccc(Cl)c(F)c2)c2ccc(C(=O)N3CCN(c4cc(CC(=O)O)ccn4)CC3(C)C)nc21 [Example 115, 2-(2-(4-(1-(4-chloro-3-fluorophenyl)-3,3-dimethyl-2,3-dihydro-1H-pyrrolo[3,2-b]pyridine-5-carbonyl)-3,3-dimethylpiperazin-1-yl)pyridin-4-yl)acetic acid] | < 500 nM |
| CC1(C)CN(c2ccc(Cl)c(F)c2)c2ccc(C(=O)N3CCN(c4ccc(CC(=O)O)nc4)CC3(C)C)nc21 [Example 117, 2-(5-(4-(1-(4-chloro-3-fluorophenyl)-3,3-dimethyl-2,3-dihydro-1H-pyrrolo[3,2-b]pyridine-5-carbonyl)-3,3-dimethylpiperazin-1-yl)pyridin-2-yl)acetic acid] | < 500 nM |
| CC1(C)CN(c2ccc(CC(=O)O)cn2)CCN1C(=O)c1ccc2c(n1)C1(CCC1)CN2c1ccc(Cl)c(F)c1 [Example 119, 2-(6-(4-(1′-(4-chloro-3-fluorophenyl)-1′,2′-dihydrospiro[cyclobutane-1,3′-pyrrolo[3,2-b]pyridine]-5′-carbonyl)-3,3-dimethylpiperazin-1-yl)pyridin-3-yl)acetic acid] | < 500 nM |
